“Also recorded” adds a separate entry of the source.
Experiments:
Format in all cases: cell-based
FKBP* fused to Nluc = target: T1, FKBP* fused to Nluc (Homo sapiens, UniProt P62942+Q96SW2, F37V); assay: Nluc/Fluc luciferase signal ratio assay of FKBP* degradation in 293FT cells; settings: wild type or CRBN −/− 293FT; indicated concentrations, 4 hours
T1 construct: Nluc (nano luciferase, fusion partner); expressed in transfected cells; host or cells: 293FT cells (wild type or CRBN-/-)
Method: FIG. 7A and FIG. 7B are graphs measuring the activity of a panel of dFKBP heterobifunctional compounds in cells expressing FKBP* fused to Nluc. Degradation of FKBP* is measured as a signal ratio (Nluc/Fluc) between NANOluc and firefly luciferase from the same multicistronic transcript in wild type (FIG. 7A) or CRBN −/− (FIG. 7B) 293FT cells treated with indicated concentrations of dFKBPs for 4 hours. A decrease in the signal ratio indicates FKBP* (Nluc) degradation.
In an effort to identify potent and selective dFKPB heterobifunctional compounds, high throughput measurements of targeted FKBP* degradation were measured by surrogate levels of luciferase. Here, FKBP* is exogenously expressed as a multicistronic transcript with two types of luciferase: nano luciferase (NLuc) and firefly luciferase (FLuc) that allow for cell normalized quantification of FKBP* protein levels. Degradation of FKBP* is measured as a signal ration (Nluc/Fluc) in wild type (FIG. 7A) or CRBN −/−(FIG. 7B) 293FT cells treated with indicated concentrations of dFKBPs for 4 hours.

[1] = tested on: NIH3T3 expressing FKBP* fused to the N-terminus of KRASG12V; assay: Phase contrast imaging of NIH3T3 cells expressing FKBP*-KRASG12V; settings: NIH3T3 expressing dTAG-KRAS; dFKBP13, 24 hours; vs DMSO
Method: FIG. 23A, FIG. 23B, FIG. 23C, and FIG. 23D are panels of phase contrast images of control NIH3T3 cells or NIH3T3 expressing FKBP* fused to the N-terminus of KRASG12V treated with DMSO or dFKBP13 for 24 hours.

FKBP* = target: T2, FKBP* (Homo sapiens, UniProt P62942, F37V); assay: Immunoblot of 293FT cells (CRBN-WT) expressing FKBP*, pretreated with Carfilzomib, MLN4924 or Lenalidomide before dFKBP13
T2 construct: HA; expressed in transfected cells; host or cells: 293FT cells (CRBN-WT or CRBN-/-)
T2 sequence (P62942 whole entry F37V): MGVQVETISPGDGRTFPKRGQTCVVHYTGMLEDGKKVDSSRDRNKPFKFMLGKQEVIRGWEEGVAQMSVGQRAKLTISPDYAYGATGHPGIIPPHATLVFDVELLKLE
Method: 293FT cells (CRBN-WT) expressing FKBP* were pretreated with luM Carfilzomib (proteasome inhibitor), 0.5 uM MLN4924 (neddylation inhibitor), and 10 uM Lenalidomide (CRBN binding ligand) for two hours prior to a 4 hour treatment with dFKBP13.
293FT cells (CRBN-WT) were engineered to express FKBP*. Cells were pretreated with luM Carfilzomib (proteasome inhibitor), 0.5 uM MLN4924 (neddylation inhibitor), and 10 uM Lenalidomide (CRBN binding ligand) for two hours prior to a 4 hour treatment with dFKBP13. Lysates were prepared and western immunoblot analysis performed.

T1 sequence (P62942 2-108 F37V): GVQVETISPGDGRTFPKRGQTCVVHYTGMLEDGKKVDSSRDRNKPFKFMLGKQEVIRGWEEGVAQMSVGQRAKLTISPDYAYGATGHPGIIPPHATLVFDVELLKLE
T1 sequence (Q96SW2 whole entry, the tested form may be a part): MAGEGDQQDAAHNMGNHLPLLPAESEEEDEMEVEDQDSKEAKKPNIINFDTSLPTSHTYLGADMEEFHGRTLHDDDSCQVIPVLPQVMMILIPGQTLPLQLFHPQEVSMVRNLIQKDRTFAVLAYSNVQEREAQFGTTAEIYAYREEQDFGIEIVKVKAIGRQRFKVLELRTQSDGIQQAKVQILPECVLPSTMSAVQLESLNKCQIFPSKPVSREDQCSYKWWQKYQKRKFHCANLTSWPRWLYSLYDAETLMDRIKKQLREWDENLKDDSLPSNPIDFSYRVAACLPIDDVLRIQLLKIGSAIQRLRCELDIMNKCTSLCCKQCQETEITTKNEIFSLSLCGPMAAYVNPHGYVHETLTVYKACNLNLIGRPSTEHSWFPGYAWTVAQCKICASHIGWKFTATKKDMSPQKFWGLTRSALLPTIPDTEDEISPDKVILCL
T1 sequence (Q16531 whole entry partner, the tested form may be a part): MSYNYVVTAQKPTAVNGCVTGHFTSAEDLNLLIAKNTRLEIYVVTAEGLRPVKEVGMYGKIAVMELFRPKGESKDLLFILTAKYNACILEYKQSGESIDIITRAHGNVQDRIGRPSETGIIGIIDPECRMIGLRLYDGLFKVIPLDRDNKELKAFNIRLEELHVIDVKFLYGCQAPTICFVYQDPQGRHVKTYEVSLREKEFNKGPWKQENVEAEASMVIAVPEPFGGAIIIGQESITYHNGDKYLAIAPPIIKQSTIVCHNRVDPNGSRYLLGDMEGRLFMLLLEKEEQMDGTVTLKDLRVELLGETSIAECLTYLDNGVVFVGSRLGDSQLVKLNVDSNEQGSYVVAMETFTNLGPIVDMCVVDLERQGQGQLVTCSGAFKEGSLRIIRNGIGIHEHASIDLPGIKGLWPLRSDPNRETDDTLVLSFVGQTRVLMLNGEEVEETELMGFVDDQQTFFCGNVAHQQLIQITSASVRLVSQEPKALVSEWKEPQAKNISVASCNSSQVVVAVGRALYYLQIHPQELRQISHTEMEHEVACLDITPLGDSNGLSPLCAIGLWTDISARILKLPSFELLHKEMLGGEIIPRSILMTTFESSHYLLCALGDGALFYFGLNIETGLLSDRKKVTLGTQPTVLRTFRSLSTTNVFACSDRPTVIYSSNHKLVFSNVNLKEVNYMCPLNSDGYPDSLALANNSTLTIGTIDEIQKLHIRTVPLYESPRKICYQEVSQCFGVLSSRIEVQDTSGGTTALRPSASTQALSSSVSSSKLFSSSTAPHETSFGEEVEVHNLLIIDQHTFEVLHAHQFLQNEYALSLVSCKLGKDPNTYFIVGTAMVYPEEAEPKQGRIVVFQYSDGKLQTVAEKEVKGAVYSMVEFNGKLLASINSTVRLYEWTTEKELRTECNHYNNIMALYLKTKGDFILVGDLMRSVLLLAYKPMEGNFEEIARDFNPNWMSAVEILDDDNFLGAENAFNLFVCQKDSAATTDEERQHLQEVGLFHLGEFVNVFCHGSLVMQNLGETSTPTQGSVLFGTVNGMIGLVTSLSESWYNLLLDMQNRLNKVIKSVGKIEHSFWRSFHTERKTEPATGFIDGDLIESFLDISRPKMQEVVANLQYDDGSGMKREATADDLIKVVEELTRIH

CC[C@H](C(=O)N1CCCC[C@H]1C(=O)O[C@H](CCc1ccc(OC)c(OC)c1)c1cccc(OCC(=O)NCCCOCCOCCOCCCNC(=O)COc2cccc3c2C(=O)N(C2CCC(=O)NC2=O)C3=O)c1)c1cc(OC)c(OC)c(OC)c1 (some centres unmarked) [dFKBP7] was tested, and the “FKBP* (Nluc) degradation, signal ratio (Nluc/Fluc)” value (FKBP* fused to Nluc) was “effectively degrade FKBP* in a cereblon dependent manner”.

In the case of CC[C@H](C(=O)N1CCCC[C@H]1C(=O)O[C@H](CCc1ccc(OC)c(OC)c1)c1cccc(OCC(=O)NCCCCCCOc2cccc3c2C(=O)N(C2CCC(=O)NC2=O)C3=O)c1)c1cc(OC)c(OC)c(OC)c1 (some centres unmarked) [dFKBP13], the “morphological change of cells” value [1] is reported as “cells morphologically revert back to the wild type (DMSO control) state; also recorded: morphological change induced”, the “degradation of HA-tagged FKBP* by dFKBP13 after MLN4924 pretreatment” value (FKBP*; 0.5 uM MLN4924 (neddylation inhibitor) two hours prior to 4 hour dFKBP13) is reported as “rescued HA-tagged FKBP*” and the “degradation of HA-tagged FKBP* by dFKBP13 after Carfilzomib pretreatment” value (FKBP*; 1 uM Carfilzomib (proteasome inhibitor) two hours prior to 4 hour dFKBP13) is reported as “rescued by the proteasome inhibitor Carfilzomib”. The “degradation of FKBP* by dFKBP13 after Lenalidomide pretreatment” value (FKBP*; 10 uM Lenalidomide (CRBN binding ligand) two hours prior to 4 hour dFKBP13) was “abolished dFKBP13-dependent FKBP* degradation”.

Source: patent US11046954B2, “Targeted protein degradation to attenuate adoptive T-cell therapy associated adverse inflammatory responses” (Dana-Farber Cancer Institute, Inc., priority 2015, dated 2021)
